Source: article PMC12329412, “Study of the mass balance, biotransformation, and safety of [^14C]IBI351 in healthy Chinese subjects” (Journal of Biomedical Research, 2024)

Assays:
[1] = Radioactive metabolite profiling in pooled plasma, urine and feces; format: in vivo, human; settings: for Plasma (0–144 h) % of AUC (share of total plasma radioactivity exposure) / Plasma (0–144 h) Metabolite/parent drug (%): pooled plasma 0–144 h; for Plasma (0–144 h) Metabolite/parent drug (%): relative to the parent drug; for Feces+urine % of dose: sum of feces 0–192 h and urine 0–96 h; for Feces (0–192 h) % of dose: pooled feces 0–192 h
Experimental: Moreover, four plasma samples at 1 h, 4 h, 48 h, and 96 h were obtained by mixing them in equal volumes. Urine samples were pooled across individuals at an equal volume to obtain one pooled sample within each time period of 0–24 h, 24–48 h, and 48–96 h. Fecal samples (0–192 h) were pooled at the same weight percentages across collection intervals for each subject. Moreover, fecal samples were pooled across individuals at an equal weight to obtain one pooled sample within each time period of 0–72 h, 72–120 h, and 120–192 h. Plasma, urine, and fecal homogenates were extracted and concentrated using organic solvents, and then the redissolved solutions were used for metabolite profile analysis. The plasma, urine, and fecal extracts were separated on HPLC columns, and the HPLC flow fractions were collected in Deepwell LumaPlateTM-96 plates at 15 s/fraction using an automatic fraction collector. The radioactivity of each fraction was quantified using a microplate detector with ARC® Convert and Evaluation software (3.0.2.379) and transformed to obtain the radioactive metabolite spectra. The radioactive metabolite spectra of each sample were integrated to acquire the peak area of each radioactive metabolite peak, the proportion of each spectral peak to the total radioactive intensity of the sample, and the proportion of the radioactivity of the major metabolites to the TRA in the corresponding blood, urine, and fecal samples. Therefore, the ratio of metabolites' concentrations to the total drug exposure (AUC) in the plasma and the ratio of each metabolite's level to the dose administered in the urine and feces were calculated. Liquid chromatography with low-energy radionuclide detection and mass spectrometry was used to identify the main metabolites in human plasma, urine, and fecal samples and to identify the possible biotransformation pathways of IBI351 in these samples.

[2] = ref [11],[19]; cited from earlier work

| SMILES | Plasma (0–144 h) % of AUC (share of total plasma radioactivity exposure) [1] | Plasma (0–144 h) Metabolite/parent drug (%) [1] | Feces+urine % of dose [1] | Feces (0–192 h) % of dose [1] | Urine (0–96 h) % of dose ([1]; pooled urine 0–96 h) | average time to reach Cmax [2] | plasma protein binding rate [2] | terminal elimination half-life [2] | volume of distribution [2] | grade of associated adverse events [2] |
| --- | --- | --- | --- | --- | --- | --- | --- | --- | --- | --- |
| C=C(F)C(=O)N1CCN(c2nc(OC[C@@H]3CCCN3C)nc3c2CCN(c2cccc4cccc(Cl)c24)C3)C[C@@H]1CC#N [adagrasib] | – | – | – | – | – | 6 h | 98% | 23 h | 942 L | – |
| C=CC(=O)N1CCN(c2nc(=O)n(-c3c(C)ccnc3C(C)C)c3nc(-c4c(O)cccc4F)c(F)cc23)[C@@H](C)C1 [sotorasib] | – | – | – | – | – | 1 h | – | 5 h | 211 L | ≥ 3 |

Further lines, with some results ahead:

| Plasma (0–144 h) % of AUC (share of total plasma radioactivity exposure) [1] | Plasma (0–144 h) Metabolite/parent drug (%) [1] | Feces+urine % of dose [1] | Feces (0–192 h) % of dose [1] | Urine (0–96 h) % of dose ([1]; pooled urine 0–96 h) | SMILES | average time to reach Cmax [2] | plasma protein binding rate [2] | terminal elimination half-life [2] | volume of distribution [2] | grade of associated adverse events [2] |
| --- | --- | --- | --- | --- | --- | --- | --- | --- | --- | --- |
| 0.09 % of AUC | 1.98% | 0.35 % of dose | – | – | CCC(=O)N1CCN2c3c(c(=O)n(-c4c(C)ccnc4C(C)C)c4nc(-c5c(O)cccc5F)c(Cl)cc34)N(C)C(=O)C2C1 (centres unmarked) [M618] | – | – | – | – | – |
| – | 5.95% | 2.70 % of dose | 2.47 % of dose | – | Cc1ccnc(C(C)C)c1-n1c(=O)c2c(c3cc(Cl)c(-c4c(O)cccc4F)nc31)N1CCN(C(=O)C(O)CO)CC1C(=O)N2C (centres unmarked) [M650] | – | – | – | – | – |
| 6.17 % of AUC | 135.90% | 45.36 % of dose | 39.87 % of dose | 5.49 % of dose | Cc1ccnc(C(C)C)c1-n1c(=O)c2c(c3cc(Cl)c(-c4c(O)cccc4F)nc31)N1CCN(C(=O)CCSCC(N)C(=O)O)CC1C(=O)N2C (centres unmarked) [M737] | – | – | – | – | – |
| 0.05 % of AUC | 1.10% | 2.70 % of dose | 2.59 % of dose | – | CC(=O)NC(CSCCC(=O)N1CCN2c3c(c(=O)n(-c4c(C)ccnc4C(C)C)c4nc(-c5c(O)cccc5F)c(Cl)cc34)N(C)C(=O)C2C1)C(=O)O (centres unmarked) [M779] | – | – | – | – | – |
